Where only a bound is given, the exact number is not on record here.

The record followed here is US12139499B2, “Heteroaryl compounds for treating Huntington's disease” (PTC THERAPEUTICS, INC., priority 2018, dated 2024).

The test system of this assay is Endogenous Huntingtin Protein. The assay is described as follows: Endogenous Huntingtin Protein Assay (ELISA-based MSD electrochemiluminescence). It counts as cell-based. To be noted: Table 1. In short, it runs like this:
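Sandwich MSD electrochemiluminescence immunoassay. Capture used MW1 (expanded polyglutamine) or MAB2166 antibody coated at 1 μg/mL overnight at 4 °C. Samples were bound overnight at 4 °C, then a rabbit monoclonal detection antibody and SULFO-TAG anti-rabbit, each at 0.25 μg/mL, were applied for 1 h at room temperature.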
Regarding `Cc1cn2nc(-c3cc(F)c4nc(N(C)[C@H]5CCN[C@@H](C)C5)sc4c3)ccc2n1` [Compound 258, 4-fluoro-N-methyl-6-(2-methylimidazo[1,2-b]pyridazin-6-yl)-N-[(2S,4S)-2-methylpiperidin-4-yl]-1,3-benzothiazol-2-amine], the IC50 is at most 0.1 µM.
Next, `CN(c1nc2cnc(-c3cc(C#N)c4nn(C)cc4c3)cc2s1)C1CC2CCC(C1)N2` (stereo not drawn) [Compound 206, 5-{2-[(3-exo)-8-azabicyclo[3.2.1]oct-3-yl(methyl)amino][1,3]thiazolo[4,5-c]pyridin-6-yl}-2-methyl-2H-indazole-7-carbonitrile]: at most 0.1 µM; `Cc1cn2cc(-c3ccc4nc(C5CCNCC5)sc4c3)cc(C)c2n1` [Compound 114, 6-(2,8-dimethylimidazo[1,2-a]pyridin-6-yl)-2-(piperidin-4-yl)-1,3-benzothiazole]: at most 0.1 µM.
For `Cc1nc2c(C#N)cc(-c3cc4sc(N(C)C5CC6(C)CCC(C)(C5)N6)nc4cn3)cc2o1` [Compound 301, 6-(2-{[(1R,3s,5S)-1,5-dimethyl-8-azabicyclo[3.2.1]octan-3-yl](methyl)amino)[1,3]thiazolo[4,5-c]pyridin-6-yl)-2-methyl-1,3-benzoxazole-4-carbonitrile], the 50% inhibitory concentration (IC50) is at most 0.1 µM.
Next, `Cc1cn2nc(-c3cc(F)c4nc(C5CCNCC5)sc4c3)cc(C(=O)O)c2n1` [Compound 219, 6-[4-fluoro-2-(piperidin-4-yl)-1,3-benzothiazol-6-yl]-2-methylimidazo[1,2-b]pyridazine-8-carboxylic acid]: 1 to 3 µM.
`CN(c1nc2ccc(-c3cc(C#N)c4nn(C)cc4c3)nc2s1)C1CC(C)(C)NC(C)(C)C1` [Compound 148, 2-methyl-5-{2-[methyl(2,2,6,6-tetramethylpiperidin-4-yl)amino][1,3]thiazolo[5,4-b]pyridin-5-yl}-2H-indazole-7-carbonitrile] returned an IC50 of at most 0.1 µM.
On to `Cc1cn2cc(-c3cc(F)c4nc(N(C)C5CCNCC5)sc4c3)cc2c(C)n1` [Compound 225, 6-(1,3-dimethylpyrrolo[1,2-a]pyrazin-7-yl)-4-fluoro-N-methyl-N-(piperidin-4-yl)-1,3-benzothiazol-2-amine], for which the IC50 is at most 0.1 µM.
`Cc1cn2nc(-c3cc(F)c4nc(C5CCN6CCCC6C5)sc4c3)ccc2n1` (stereo not shown) [Compound 166, 6-[4-fluoro-2-(octahydroindolizin-7-yl)-1,3-benzothiazol-6-yl]-2-methylimidazo[1,2-b]pyridazine] registered an IC50 of at most 0.1 µM.
Then `CN(c1nc2cnc(-c3cc(C#N)c4nn(C)cc4c3)nc2s1)C1CC(C)(C)NC(C)(C)C1` [Compound 123, 2-methyl-5-{2-[methyl(2,2,6,6-tetramethylpiperidin-4-yl)amino][1,3]thiazolo[5,4-d]pyrimidin-5-yl}-2H-indazole-7-carbonitrile], with at most 0.1 µM; and `Cc1cc(-c2ccc3nc(N(C)C4CCN(C)C(C)C4)sc3c2)cc2cn(C)nc12` (stereo not shown) [Compound 108, 6-(2,7-dimethyl-2H-indazol-5-yl)-N-(1,2-dimethylpiperidin-4-yl)-N-methyl-1,3-benzothiazol-2-amine], with 0.5 to 1 µM.
Next, `Cc1cn2cc(-c3cc4sc(N(C)C5CCNCC5)nc4cn3)cc(F)c2n1` [Compound 215, 6-(8-fluoro-2-methylimidazo[1,2-a]pyridin-6-yl)-N-methyl-N-(piperidin-4-yl)[1,3]thiazolo[4,5-c]pyridin-2-amine]: at most 0.1 µM.
`Cc1cn2cc(-c3cc4sc(N(C)C5CC6CCC(C5)N6)nc4cn3)cc(C#N)c2n1` (stereo not drawn) [Compound 203, 6-{2-[(3-exo)-8-azabicyclo[3.2.1]oct-3-yl(methyl)amino][1,3]thiazolo[4,5-c]pyridin-6-yl}-2-methylimidazo[1,2-a]pyridine-8-carbonitrile] came in with a half-inhibitory concentration (IC50) of at most 0.1 µM.
Then `Cn1cc2cc(-c3cc(F)c4nc(C5=CCNCC5)sc4c3)cc(C#N)c2n1` [Compound 102, 5-[4-fluoro-2-(1,2,3,6-tetrahydropyridin-4-yl)-1,3-benzothiazol-6-yl]-2-methyl-2H-indazole-7-carbonitrile], with at most 0.1 µM.
